Experimental data from patent US5688805A, “Tricyclic derivatives, compositions and methods of use” (Schering Corporation, priority 1995, dated 1997).

What was measured:
[1] = tested on: LPS/Galactosamine-Induced Lethality; assay: In Vivo Study: Inhibition of LPS/Galactosamine-Induced Lethality; set-up: species or system Mice (C57BI/6J males); details: 25 mg/kg orally or i.p. one hour before LPS (100 ng) and d-galactosamine (8 mg) i.p.; survival at 24 hours
Protocol: This test procedure is a standard test used to determine activity against septic shock.
3. In Vivo Study: Inhibition of LPS/Galactosamine-Induced Lethality
Mice (C57BI/6J males, 6-8 weeks of age) are dosed with the indicated compound (dissolved in CMC suspension vehicle; compounds are given orally or i.p. one hour before challenge with LPS and d-galactosamine).
Mice are challenged i.p. with a mixture of LPS (from E. coli 0111:B4; 100 ng) and d-galactosamine (8 mg).
Survival is determined 24 hours after challenge. See procedure

TNF-α = assay: In Vitro Study: Inhibition of LPS-Induced TNF-α Production From the Murine Cell Line WEHI-265; assay type: cell-based; details: for inhibition at 10 µM: Mus musculus, WEHI-265 cells, LPS, 20-24 hours
Protocol: This test procedure is a standard test used to determine anti-TNF-α activity and to evaluate the usefulness of said compounds for counteracting the biological effects of TNF-α.
In Vitro Study: Inhibition of LPS-Induced TNF-α Production From the Murine Cell Line WEHI-265
1) Cells (obtained from cell cultures containing ≤10^6 cells/ml) are suspended at 0.2×10^6 cells/ml in complete medium (RPMI1640, with 10% FCS, 10^-5 M 2-ME, 2 mM glutamine and 10 mM HEPES buffer) and plated in CoStar 24 well plates (1.0 ml/well).
2) Compounds are dissolved in the appropriate vehicle at 400 times the concentration to be tested, and 5 μl of compound is added to the wells.
3) LPS (from E. coli 0111:B4) is diluted to 6 μg/ml and 1.0 ml is added to wells.
4) Plates are incubated 20-24 hours in 37° C. CO2 incubator.
5) Supernatant fluids are collected and analyzed for TNF content as described in J. lmmunol., 142:3884.

TNF = assay: In Vivo Study: Inhibition of LPS-Induced Serum TNF; set-up: species or system Mice (C57BI/6J males); details: Mus musculus, 1.5 h; 25 mg/kg orally or i.p. one hour before LPS (50 μg i.p.); bled 90 min after LPS; serum TNF by ELISA
Protocol: In addition to the in vitro test described above, the following in vivo test was also performed on several of the compounds of the present invention.
2. In Vivo Study: Inhibition of LPS-Induced Serum TNF
1) Mice (C57BI/6J males, 6-8 weeks of age) are dosed with the indicated compound (dissolved in CMC suspension vehicle; compounds are given orally or i.p. one hour before LPS challenge).
3) Mice are bled 90 min after LPS challenge.
4) Sera are analyzed for TNF content by ELISA as described in J. Immunol.

| Compound | # DEAD/TOTAL AT 25 MG/KG [1] | inhibition at 10 µM (TNF-α) [%] | inhibition in vivo at 25 mg/kg (TNF) [%] | anti-TNF-α activity (in words) (TNF-α; general statement) |
| --- | --- | --- | --- | --- |
| C=CCC1(C2=CCN(C)CC2)c2ccccc2CCc2ccccc21 [Compound IB, 4-[10,11-dihydro-5-(2-propenyl)-5H-dibenzo[a,d]cyclohepten-5-yl]-1-methyl-1,2,5,6-tetrahydropyridine] | 0/8 | 70 | 80 | – |
| c1ccc2c(c1)CCc1ccccc1C2C1CCCNC1 (stereo not drawn) [Compound ID, 3-(10,11-dihydro-5H-dibenzo[a,d]cyclohepten-5-yl)-piperidine acetic acid] | – | 51 | – | – |
| C=CCC1(C2=CCNCC2)c2ccccc2CCc2ccccc21 [Compound IE, 4-[10,11-dihydro-5-(2-propenyl)-5H-dibenzo[a,d]cyclohepten-5-yl]-1,2,5,6-tetrahydro(1H)-pyridine] | 7/8 | 61 | – | – |
| CCCC1(C2=CCN(C)CC2)c2ccccc2CCc2ccccc21 [Compound IF, 4-[10,11-dihydro-5-propyl-5H-dibenzo[a,d]cyclohepten-5-yl]-1-methyl-1,2,5,6-tetrahydropyridine] | 5/8 | 28 | 50 | – |
| C=CCC1(C2=CCN(C(C)=O)CC2)c2ccccc2CCc2ccccc21 [Compound IG, 1-acetyl-4-[10,11-dihydro-5-(2-propenyl)-5H-dibenzo[a,d]cyclohepten-5-yl]-1,2,5,6-tetrahydro-1H-pyridine] | – | 27 | – | – |
| CCCC1(C2CCN(C)CC2)c2ccccc2CCc2ccccc21 [Compound IJ, 4-[10,11-dihydro-5-propyl-5H-dibenzo[a,d]cyclohepten-5-yl]-1-methylpiperidine] | – | 55 | – | – |
| CN1CC=C(C2c3ccccc3CCc3ccccc32)CC1 [Compound IL, 4-(10,11-dihydro-5H-dibenzo[a,d]cyclohepten-5-yl)-1-methyl-1,2,5,6-tetrahydropyridine] | 1/9 | 23 | 58 | – |
| C=CCC1(C2=CC[N+](C)(C)CC2)c2ccccc2CCc2ccccc21.[I-] [Compound IM, 4-[10,11-dihydro-5-(2-propenyl)-5H-dibenzo[a,d]cyclohepten-5-yl]-1,1-dimethyl-1,2,5,6-tetrahydropyridinium iodide] | 2/11 | 8 | 27 | – |
| C=CCC1(C2=CCN(Cc3ccccc3)CC2)c2ccccc2CCc2ccccc21 [Compound IN, 4-[10,11-dihydro-5-(2-propenyl)-5H-dibenzo[a,d]cyclohepten-5-yl]-1-(phenylmethyl)-1,2,5,6-tetrahydro-1H-pyridine] | 10/10 | 25 | 42 | – |
| C=CCC1(C2=CCN(C(C)C)CC2)c2ccccc2CCc2ccccc21 [Compound IP] | 6/10 | 62 | 28 | – |
| CN1CCCC(C2c3ccccc3CCc3ccccc32)C1 (stereo not drawn) [Compound IR, 3-(10,11-dihydro-5H-dibenzo[a,d]cyclohepten-5-yl)-1-methyl-piperidine] | – | 60 | – | – |
| C[N+]1(C)CC=C(C2c3ccccc3CCc3ccccc32)CC1 [Compound IY, 4-(10,11-dihydro-5H-dibenzo[a,d]cyclohepten-5-yl)-1,1-dimethyl-1,2,5,6-tetrahydropyridinium iodide] | – | 12 | – | – |
| CN1CCC(C2c3ccccc3CCc3ccccc32)CC1 [Compound K, reference compound] | 0/10 | 17 | 82 | has anti-TNF-α activity |
| C=CCC1(C2=CCN(C)CC2)c2ccccc2CCc2ccc(Cl)cc21 (stereo not drawn) [IA] | – | 80 | – | – |
| C=CCC1(C2=CCN(C(=O)OCC)CC2)c2ccccc2CCc2ccccc21 [IC] | 4/8 | 20 | – | – |
| C=CCC1(C2=CCN(C)CC2)c2ccccc2C=Cc2ccccc21 [IH] | 4/9 | 6 | 8 | – |
| CN1CC=C(C2(Cc3ccccc3)c3ccccc3CCc3ccccc32)CC1 [IK] | 5/9 | 61 | 45 | – |
| CC(C)=CCC1(C2=CCN(C)CC2)c2ccccc2CCc2ccccc21 [IQ] | 4/10 | 62 | 28 | – |
| CN1CC=C(C2(C)c3ccccc3CCc3ccccc32)CC1 [IS] | – | 61 | 26 | – |
| CC1(C2=CC[N+](C)(C)CC2)c2ccccc2CCc2ccccc21 [IT] | – | 9 | 3 | – |
| C=CCC1(C2=CCN(C)CC2)c2ccccc2CCc2cccnc21 (stereo not drawn) [IX] | 9/9 | 38 | 56 | – |
